Drawing on patent publication US10532987B2, “Compounds and methods for inducing browning of white adipose tissue” (GUANGZHOU INSTITUTES OF BIOMEDICINE AND HEALTH, CHINESE …, priority 2015, dated 2020), this text covers fold induction for 38 molecules.

One assay concerns Ucp1. Nature of the assay: UCP1 luciferase assay (Ucp1 up-regulation in differentiated inguinal adipocytes of Ucp1-luciferase knock-in mice). Type of assay: cell-based. Conditions: Mus musculus, Adipocyte, 48 h; at 0.3 μM; 2 days treatment; luciferase activity; read-out: Ucp1 activation fold/corresponding concentration. The procedure: TEST EXAMPLE 1 UCP1 Luciferase Assay
Evaluating Compounds that Induce Ucp1 Up-Regulation
Ucp1-luciferase knock-in mice will be housed in cages and fed on standard chow diets (the detailed procedures please see reference 14). The 8-week-old mice will be killed by the cervical dislocation and put into 75% alcohol for 5 minutes. The inguinal adipose tissue will be dissected out and transferred to the three 10-cm petri dishes and washed with PBS for three times. The adipose tissue will be dissected and minced on a 10-cm petri dish for several minutes and then pipetted into 20 ml 0.1% collagenase solution in 50 ml conical tubes and digested at 37° C. for 1 hour. Next, 20 ml culture medium will be added to terminate the digestion and centrifuged for 10 minutes at 1000 rpm respectively. The supernatants will be removed and the pellets re-suspended in 10 mL culture medium and plated into 10-cm plates. The cells will be left to adhere to the plates overnight and the culture medium will be changed every other day. The confluent cells will be trypsinized, counted and plated to 24-well plate (5×10^4 cells/well). The cells will be washed and re-fed the next day (as day −2). Two days later (day 0), the cells will usually become confluent and be induced to differentiate with MDIR medium. On day 2, the medium will be changed to IR medium and re-fed every 2 days. Complete differentiation is usually achieved by day 10. On day 10, the medium will be changed to the culture medium of 10% FBS/DMEM with indicated drugs along with the positive and negative controls for 2 days. The media will be removed and the cells washed with 1 ml PBS per well three times. Then 100 μl lysis buffer will be used to lyse the cells at 4° C. for 1 hour. 30 μl culture medium, 30 μl cell lysates and 60 μl Steady-Glo® Reagent were added to a well of 96-well-plate and the luminescence will be measured using a luminometer. The protein concentration will be determined using 20 μl cell lysates and specific activity of luciferase will be tabulated and data analyzed.
Consider `COc1ccc(-c2csc(NC(=O)[C@@H]3CCCN3)n2)cc1OC` [Compound 70, (S)—N-(4-(3,4-dimethoxyphenyl)thiazol-2-yl)pyrrolidine-2-carboxamide], for which the fold induction at 0.3 µM came to 1.7.
Turning to `CCOC(=O)N1CCC[C@H]1C(=O)Nc1nc(-c2ccc(OC)c(OC)c2)cs1` [Compound 71, (S)-ethyl 2-(4-(3,4-dimethoxyphenyl)thiazol-2-ylcarbamoyl)pyrrolidine-1-carboxylate], the fold induction at 0.3 µM came to 1.7.

The assay is the same for the next values; noted with them: Mus musculus, Adipocyte, 48 h; at 1 μM; 2 days treatment; luciferase activity; read-out: Ucp1 activation fold/corresponding concentration.
As for `N#Cc1ccc(-c2csc(Nc3ccccn3)n2)cc1` [Compound 49, 4-(2-(pyridin-2-ylamino)thiazol-4-yl)benzonitrile], the fold induction at 1 µM was 3.9.
Regarding `CS(=O)(=O)c1ccc(-c2csc(Nc3ccccn3)n2)cc1` [Compound 51, 4-(4-(methylsulfonyl)phenyl)-N-(pyridin-2-yl)thiazol-2-amine], the fold induction at 1 µM stood at 3.9.
The same measure, in the same setting: then `O=C(c1ccc(-c2csc(Nc3ccccn3)n2)cc1)N1CCOCC1` [Compound 52, morpholino(4-(2-(pyridin-2-ylamino)thiazol-4-yl)phenyl)methanone], with 5.1; and `CCNC(=O)c1ccc(-c2csc(Nc3ccccn3)n2)cc1` [Compound 53, N-ethyl-4-(2-(pyridin-2-ylamino)thiazol-4-yl)benzamide], with 3.
With `c1ccc(Nc2nc(-c3ccc(CN4CCOCC4)cc3)cs2)nc1` [Compound 54, 4-(4-(morpholinomethyl)phenyl)-N-(pyridin-2-yl)thiazol-2-amine], the fold induction at 1 µM is 3.9.
Consider `CN1CCN(C(=O)c2ccc(-c3csc(Nc4ccccn4)n3)cc2)CC1` [Compound 59, (4-methylpiperazin-1-yl)(4-(2-(pyridin-2-ylamino)thiazol-4-yl)phenyl)methanone], for which the fold induction at 1 µM was determined as 4.
The same measure, in the same setting: then `O=C(Nc1cccnc1)c1ccc(-c2csc(Nc3ccccn3)n2)cc1` [Compound 64, 4-(2-(pyridin-2-ylamino)thiazol-4-yl)-N-(pyridin-3-yl)benzamide], with 1.1; and `C#Cc1ccc(-c2csc(Nc3ccccn3)n2)cc1` [Compound 78, 4-(4-ethynylphenyl)-N-(pyridin-2-yl)thiazol-2-amine], with 2.3.
On the same count and under the same terms, under `c1ccc(Nc2nc(-c3ccc4c(c3)CCC4)cs2)nc1` [Compound 81, 4-(2,3-dihydro-1H-inden-5-yl)-N-(pyridin-2-yl)thiazol-2-amine] stands 2.
For the molecule `c1ccc(Nc2nc(-c3ccc4c(c3)OCO4)cs2)nc1` [Compound 82, 4-(benzo[d][1,3]dioxol-5-yl)-N-(pyridin-2-yl)thiazol-2-amine], the fold induction at 1 µM stood at 2.4.

The assay is the same for the next values; noted with them: Mus musculus, Adipocyte, 48 h; at 3 μM; 2 days treatment; luciferase activity; read-out: Ucp1 activation fold/corresponding concentration.
On to `O=C(COc1ccc(-c2csc(Nc3ccccn3)n2)cc1)N1CCOCC1` [Compound 46, 1-morpholino-2-(4-(2-(pyridin-2-ylamino)thiazol-4-yl)phenoxy)ethanone], for which the fold induction at 3 µM stood at 1.7.
For the molecule `CCNC(=O)COc1ccc(-c2csc(Nc3ccccn3)n2)cc1` [Compound 47, N-ethyl-2-(4-(2-(pyridin-2-ylamino)thiazol-4-yl)phenoxy)acetamide], the fold induction at 3 µM amounted to 2.4.
As for `COC(=O)c1ccc(-c2csc(Nc3ccccn3)n2)cc1` [Compound 48, methyl 4-(2-(pyridin-2-ylamino)thiazol-4-yl)benzoate], the fold induction at 3 µM worked out at 6.
On to `c1ccc(-c2ccc(-c3csc(Nc4ccccn4)n3)cc2)cc1` [Compound 50, 4-(biphenyl-4-yl)-N-(pyridin-2-yl)thiazol-2-amine], for which the fold induction at 3 µM came out at 2.4.
Take `c1ccc(CNc2ccc(-c3csc(Nc4ccccn4)n3)cc2)cc1` [Compound 55, 4-(4-(benzylamino)phenyl)-N-(pyridin-2-yl)thiazol-2-amine]: the fold induction at 3 µM was 2.
On to `CC(C)(C)CNc1ccc(-c2csc(Nc3ccccn3)n2)cc1` [Compound 56, 4-(4-(neopentylamino)phenyl)-N-(pyridin-2-yl)thiazol-2-amine], for which the fold induction at 3 µM turned out to be 2.3.
Turning to `CC(C)NC(=O)c1ccc(-c2csc(Nc3ccccn3)n2)cc1` [Compound 57, N-isopropyl-4-(2-(pyridin-2-ylamino)thiazol-4-yl)benzamide], the fold induction at 3 µM came to 3.5.
Consider `O=C(Nc1ccccc1)c1ccc(-c2csc(Nc3ccccn3)n2)cc1` [Compound 58, N-phenyl-4-(2-(pyridin-2-ylamino)thiazol-4-yl)benzamide], for which the fold induction at 3 µM worked out at 1.4.
Still for that read-out and setting: then `CC(=O)OCc1ccc(-c2csc(Nc3ccccn3)n2)cc1` [Compound 60, 4-(2-(pyridin-2-ylamino)thiazol-4-yl)benzyl acetate], with 2.6.
In the case of `CC(=O)N1CCC(c2ccc(-c3csc(Nc4ccccn4)n3)cc2)CC1` [Compound 61, 1-(4-(4-(2-(pyridin-2-ylamino)thiazol-4-yl)phenyl)piperidin-1-yl)ethanone], the fold induction at 3 µM stood at 3.2.
For the molecule `COCCOCCNC(=O)c1ccc(-c2csc(Nc3ccccn3)n2)cc1` [Compound 62, N-(2-(2-methoxyethoxy)ethyl)-4-(2-(pyridin-2-ylamino)thiazol-4-yl)benzamide], the fold induction at 3 µM is 2.2.
As for `Clc1ccc(-c2csc(Nc3ccccn3)n2)cc1` [Compound 63, 4-(4-chlorophenyl)-N-(pyridin-2-yl)thiazol-2-amine], the fold induction at 3 µM was determined as 5.9.
With `O=C(Nc1ccncc1)c1ccc(-c2csc(Nc3ccccn3)n2)cc1` [Compound 65, 4-(2-(pyridin-2-ylamino)thiazol-4-yl)-N-(pyridin-4-yl)benzamide], the fold induction at 3 µM worked out at 1.1.
On to `CCN(CC)C(=O)c1ccc(-c2csc(Nc3ccccn3)n2)cc1` [Compound 66, N,N-diethyl-4-(2-(pyridin-2-ylamino)thiazol-4-yl)benzamide], for which the fold induction at 3 µM is 1.
Take `CCOC(=O)[C@@H]1CCCN1C(=O)c1ccc(-c2csc(Nc3ccccn3)n2)cc1` [Compound 67, (S)-ethyl 1-(4-(2-(pyridin-2-ylamino)thiazol-4-yl)benzoyl)pyrrolidine-2-carboxylate]: the fold induction at 3 µM came to 3.1.
Same read-out and setting: under `O=C(Nc1ccc(Cl)cc1)c1csc(Nc2ccccn2)n1` [Compound 68, N-(4-chlorophenyl)-2-(pyridin-2-ylamino)thiazole-4-carboxamide] stands 1.3.
As for `O=C(Nc1ccccn1)c1ccc(-c2csc(Nc3ccccn3)n2)cc1` [Compound 69, N-(pyridin-2-yl)-4-(2-(pyridin-2-ylamino)thiazol-4-yl)benzamide], the fold induction at 3 µM was found to be 4.6.
As to `c1ccc(Nc2nc(-c3ccc(CN4CCCCC4)cc3)cs2)nc1` [Compound 72, 4-(4-(piperidin-1-ylmethyl)phenyl)-N-(pyridin-2-yl)thiazol-2-amine], the fold induction at 3 µM was 1.8.
Still for that read-out and setting: then `CC(=O)c1ccc(-c2csc(Nc3ccccn3)n2)cc1` [Compound 73, 1-(4-(2-(pyridin-2-ylamino)thiazol-4-yl)phenyl)ethanone], with 1.2; and `O=C(NO)c1ccc(-c2csc(Nc3ccccn3)n2)cc1` [Compound 74, N-hydroxy-4-(2-(pyridin-2-ylamino)thiazol-4-yl)benzamide], with 3.
As to `Clc1cccc(-c2csc(Nc3ccccn3)n2)c1Cl` [Compound 75, 4-(2,3-dichlorophenyl)-N-(pyridin-2-yl)thiazol-2-amine], the fold induction at 3 µM turned out to be 1.1.
As for `c1ccc(Nc2nc(-c3ccc(-c4ccsc4)cc3)cs2)nc1` [Compound 76, N-(pyridin-2-yl)-4-(4-(thiophen-3-yl)phenyl)thiazol-2-amine], the fold induction at 3 µM is 1.8.
Regarding `c1ccc(Nc2nc(-c3ccc(-c4nn[nH]n4)cc3)cs2)nc1` [Compound 77, 4-(4-(2H-tetrazol-5-yl)phenyl)-N-(pyridin-2-yl)thiazol-2-amine], the fold induction at 3 µM was determined as 1.1.
Still for that read-out and setting: then `c1ccc(Nc2nc(-c3ccc(-c4ccncc4)cc3)cs2)nc1` [Compound 79, N-(pyridin-2-yl)-4-(4-(pyridin-4-yl)phenyl)thiazol-2-amine], with 1.8; and `Cc1ccc(-c2csc(Nc3ccccn3)n2)cc1C` [Compound 80, 4-(3,4-dimethylphenyl)-N-(pyridin-2-yl)thiazol-2-amine], with 1.5.
As for `Cc1cc(-c2csc(Nc3ccccn3)n2)ccc1N` [Compound 83, 4-(4-amino-3-methylphenyl)-N-(pyridin-2-yl)thiazol-2-amine], the fold induction at 3 µM was 6.
